Test results published in publication PMC9924089, “In Silico Discovery of Small Molecule Modulators Targeting the Achilles’ Heel of SARS-CoV-2 Spike Protein” (ACS Central Science, 2023).

Tests used:
[1] = target: prototypic SARS-CoV-2 spike protein (Severe acute respiratory syndrome coronavirus 2, UniProt P0DTC2, K986P/R682S/R683G/R685G/V987P); experiment: biochemical; format: binding
[2] = target: SARS-CoV-2 spike protein (Severe acute respiratory syndrome coronavirus 2, UniProt P0DTC2, K986P/R682S/R683G/R685G/V987P)

Compound | Response at 50 μM (%) [1] | also measured
CCCCCC(=O)Oc1ccc(/N=N/c2ccc(C#N)cc2)cc1 [0054-0201] | 23.5% | 
CC(=O)Nc1ccc(Oc2ccc3c(c2)C(=O)N(c2cccc(C)c2)C3=O)cc1 [0584-0466] | 21.5% | 
CCCCCCCCOc1ccc(OC(=O)c2ccco2)cc1 [0606-5952] | 24.2% | 
CCCCCCCOc1ccc(C2=N/C(=C/c3ccco3)C(=O)O2)cc1 [0782-7025] | 12.8 | 
COc1cccc(/C=C2/N=C(c3ccc(NC(C)=O)cc3)OC2=O)c1 [2082-0203] | 17.9 | 
CCN(CC)c1ccc(/C=N/c2ccc(S(N)(=O)=O)cc2)cc1 [2166-0281] | 21 | 
O=c1/c(=C/c2ccc(-c3cccc([N+](=O)[O-])c3)o2)sc2nc(-c3cccs3)nn12 [5629-0125] | 16 | 
O=C(COc1ccc(-c2cnc3ccccc3n2)cc1)c1cccs1 [6420-3607] | 11.9 | 
O=C(Oc1ccc(OC(=O)c2c(Cl)nsc2Cl)cc1)c1c(Cl)nsc1Cl [8002-0592] | 14.4 | 
N#Cc1ccc(/N=C/c2cc([N+](=O)[O-])ccc2Cl)cc1 [AE-641/08724023] | 19 | 
CCC(=O)Nc1ccc(C(=O)OCC(=O)c2ccc(Cl)c(Cl)c2)cc1 [AJ-292/41945407] | 7.7 | 
O=C(COC(=O)c1ccc(Cl)cc1Cl)c1ccc(OC(=O)c2ccco2)cc1 [AK-918/41968204] | 5.4 | 
CCOc1ccc(C(=O)COC(=O)c2ccc(NC(C)=O)cc2)cc1 [AK-918/42180074] | 5.7 | 
CCCCOC(=O)c1ccc(OC(=O)c2cccc3ccccc23)cc1 [AN-652/43024838] | 5.6 | 
COc1ccc(/C=C/c2nn3c(Cc4ccccc4F)nnc3s2)cc1 [AP-501/43286897] | 17.8 | 
CC(=O)Nc1ccc(-c2cn3cc(Sc4ccccc4)ccc3n2)cc1 [AQ-776/42801545] | 19.5 | 
Cn1c(CSc2nc3ccccc3s2)nnc1SCC(=O)NCCO [C592-3799] | 25.5% | 
COC(=O)c1ccc2c(c1)C(=O)/C(=C/c1ccc(-c3cccc(C(F)(F)F)c3)o1)O2 [C711-0480] | 23.4% | 
COc1ccc(-n2nnc3c(SCC(=O)OCc4ccccc4)ncnc32)cc1 [F0682-1220] | 9 | 

Compound | Response at 50 μM (%) [1] | also measured
NCc1cncc(-c2ccccc2)c1 [F1905-6556] | 14.1 | 
O=C(CCn1ccc(=O)[nH]c1=O)NCc1cc(-c2ccccc2F)on1 [F2493-3278] | 18.5 | 
COc1ccc(-c2cc(COC(=O)CC3CCCCC3)no2)cc1 [F2496-0660] | 10.1 | 
O=C(OCc1cc(-c2ccc(F)cc2F)on1)c1ccc2[nH]cnc2c1 [F2496-3037] | 3.6 | 
O=C(CSc1ccncc1)OCc1cc(-c2ccccc2F)on1 [F2496-3101] | 14 | 
O=C(CCn1ccc(=O)[nH]c1=O)OCc1cc(-c2ccco2)on1 [F2496-3133] | 21.1% | 
O=C(OCc1cc(-c2cc3ccccc3o2)on1)c1ccc2[nH]cnc2c1 [F2496-3295] | 16.2 | 
CCCOC(=O)c1ccc(OCC(=O)c2ccc(O)cc2O)cc1 [F3139-1680] | 13.9 | 
COc1ccccc1-c1cc2c(=O)n(Cc3nc(-c4ccccn4)no3)ccn2n1 [F3382-3571] | 8.9 | 
CCCCOC(=O)c1ccc(NC(=O)c2cc(=O)c(OC)co2)cc1 [F5449-0108] | 15.8 | 
O=C(CCn1ccc(=O)[nH]c1=O)N1CC(c2nc(-c3cccc(Cl)c3)no2)C1 [F6064-2602] | 22.3% | 
COCCNC(=O)N1CC(c2nc(-c3cccc(Cl)c3)no2)C1 [F6064-2993] | 9.8 | 
O=C(Cc1noc2ccccc12)N1CC(c2nc(-c3ccc[nH]c3=O)no2)C1 [F6064-7687] | 9.3 | 
O=S(=O)(NCC#CCOc1cccc(C(F)(F)F)c1)c1cccs1 [F6412-1980] | 27.1% | 
O=C(Cc1cccnc1)N1CC(n2cc(COc3ccccc3)nn2)C1 [F6514-4048] | 10.5 | 
CC(=O)n1ccc2ccc(C(=O)CSc3nnc(-c4cccnc4)n3C)cc21 [K822-0272] | 13.8 | 
CCCCC/C=C\C/C=C\CCCCCCCC(=O)O [LA, linoleic acid, reference compound] |  | Kd [1]: 34.2 µM
CCCCCCCC/C=C\CCCCCCCC(=O)O [OA, oleic acid, reference compound] |  | Kd [1]: 28.5 µM
COc1cccc(C(=O)COC(=O)c2ccc(O)cc2O)c1 [SPC-1] | 46% | 

Compound | Response at 50 μM (%) [1] | also measured
Cc1nc(CSCCC(=O)N2CCc3ccc([N+](=O)[O-])cc32)cs1 [SPC-2] | 40.2% | 
Cn1c(SCc2nc(-c3ccccc3Cl)no2)nnc1-c1ccccc1F [SPC-3] | 51.8% | 
CN(CCc1cnn(C)c1)C(=O)c1ccc(-c2ccccc2Cl)o1 [SPC-4] | 30.4% | 
COc1ccc(-c2noc(CSc3nnc(-c4ccccc4)n3C)n2)cc1 [SPC-5] | 46.1% | 
COc1cccc(-c2noc(CCC(=O)Nc3cccnc3)n2)c1 [SPC-6] | 35.9% | 
O=C(O)CCCCCC(=O)N1CCc2ccc([N+](=O)[O-])cc21 [SPC-14] |  | particles in the closed state (three RBD down) [2]: about 48%; particles in the open state with one RBD up [2]: 52%
Cn1c(SCc2nc(-c3ccccc3)no2)nnc1-c1ccco1 [STL416744] | 30.3% | 
c1ccc(-c2nnc(SCCCSc3nnc(-c4ccccc4)o3)o2)cc1 [T6013936] | 17.1 | 
Cc1nc(C)c(-c2nnc(SCc3nc(-c4cccs4)oc3C)o2)s1 [T6037875] | 18.3 | 
COc1ccc(-c2nnc(SCc3nc(-c4ccco4)no3)o2)cc1 [T6080959] | 21.2% | 
c1csc(-c2noc(CSc3nnc(NC4CC4)s3)n2)c1 [T6141058] | 14.3 | 
Cc1ccc(-c2nc(CSc3nnc(-c4ccco4)o3)no2)cc1 [T6363271] | 2.9 | 
Cc1cc(C(=O)CSc2nnc(-c3nnc(-c4ccccc4)o3)o2)c(C)n1C [T6388553] | 18.3 | 
CSc1nc(N)n2nc(C(C)(C)C)cc2n1 [compound 6536] | 23.3% | 
Cc1nc(C(F)(F)F)ccc1-c1nnc(SCc2ccc(OC(F)(F)F)cc2)o1 [compound 9502] | 26.3% | 
CN(CCCO)C(=O)c1coc(COc2cccc(F)c2F)n1 [compound 11547730] | 14.9 | 
Cc1cccc(-c2noc(CCc3nc(C4CCOC4)no3)n2)c1 (stereo not drawn) [compound 18297954] | 16.5 | 
COc1cccc(-c2ncc(CNC(=O)CC3NC(=O)NC3=O)s2)c1 (stereo not drawn) [compound 42995570] | 16 | 
